For four molecules, Ki and inhibition results are on record in ChEMBL document CHEMBL1821607, “N-Arylalkyl-2-azaadamantanes as cage-expanded polycarbocyclic sigma (σ) receptor ligands” (Bioorg Med Chem Lett, 2011).

The target in assay [1] is Sigma non-opioid intracellular receptor 1 (Cavia porcellus, UniProt Q60492). Kind of assay: Displacement of [3H](+)-pentazocine from sigma 1 receptor in guinea pig brain homogenates after 90 mins by scintillation counting. The format is tissue-based. (Loss of bound radioactivity is the signal in a displacement assay; it reports binding, not function.)
Assay [2] deals with T1, Alpha-2A adrenergic receptor (Homo sapiens) (UniProt P08913).
T1 sequence (whole entry): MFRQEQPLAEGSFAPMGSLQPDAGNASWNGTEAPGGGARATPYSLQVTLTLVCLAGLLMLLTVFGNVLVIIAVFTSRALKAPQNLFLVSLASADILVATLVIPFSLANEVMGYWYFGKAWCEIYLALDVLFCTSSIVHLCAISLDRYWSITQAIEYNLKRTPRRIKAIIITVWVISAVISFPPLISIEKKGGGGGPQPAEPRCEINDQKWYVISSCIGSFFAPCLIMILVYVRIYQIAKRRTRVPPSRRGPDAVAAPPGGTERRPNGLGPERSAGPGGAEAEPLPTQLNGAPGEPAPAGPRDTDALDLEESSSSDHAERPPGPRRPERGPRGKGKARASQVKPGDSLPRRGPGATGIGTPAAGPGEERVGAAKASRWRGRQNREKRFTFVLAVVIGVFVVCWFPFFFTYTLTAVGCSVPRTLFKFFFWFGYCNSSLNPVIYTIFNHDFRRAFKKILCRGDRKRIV
The assay is described as follows: Inhibition of alpha-2A adrenergic receptor at 10 uM by NIMH PDSP.

Assay [3] has as its target T2, Alpha-2B adrenergic receptor (Homo sapiens) (UniProt P18089).
T2 sequence (whole entry): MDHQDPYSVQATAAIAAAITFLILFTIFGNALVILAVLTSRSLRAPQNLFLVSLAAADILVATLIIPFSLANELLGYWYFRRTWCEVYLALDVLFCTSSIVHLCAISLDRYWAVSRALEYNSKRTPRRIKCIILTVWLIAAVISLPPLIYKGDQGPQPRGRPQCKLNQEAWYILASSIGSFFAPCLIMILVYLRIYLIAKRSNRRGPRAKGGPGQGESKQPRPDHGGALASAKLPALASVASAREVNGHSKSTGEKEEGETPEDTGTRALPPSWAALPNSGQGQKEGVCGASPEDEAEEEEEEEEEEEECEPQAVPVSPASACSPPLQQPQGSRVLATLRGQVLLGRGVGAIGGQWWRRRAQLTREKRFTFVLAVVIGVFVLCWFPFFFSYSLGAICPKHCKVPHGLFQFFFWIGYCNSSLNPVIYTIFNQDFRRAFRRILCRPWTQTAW
Kind of assay: Inhibition of alpha-2B adrenergic receptor at 10 uM by NIMH PDSP.

The target of assay [4] is T3, Alpha-2C adrenergic receptor (Homo sapiens) (UniProt P18825).
T3 sequence (whole entry): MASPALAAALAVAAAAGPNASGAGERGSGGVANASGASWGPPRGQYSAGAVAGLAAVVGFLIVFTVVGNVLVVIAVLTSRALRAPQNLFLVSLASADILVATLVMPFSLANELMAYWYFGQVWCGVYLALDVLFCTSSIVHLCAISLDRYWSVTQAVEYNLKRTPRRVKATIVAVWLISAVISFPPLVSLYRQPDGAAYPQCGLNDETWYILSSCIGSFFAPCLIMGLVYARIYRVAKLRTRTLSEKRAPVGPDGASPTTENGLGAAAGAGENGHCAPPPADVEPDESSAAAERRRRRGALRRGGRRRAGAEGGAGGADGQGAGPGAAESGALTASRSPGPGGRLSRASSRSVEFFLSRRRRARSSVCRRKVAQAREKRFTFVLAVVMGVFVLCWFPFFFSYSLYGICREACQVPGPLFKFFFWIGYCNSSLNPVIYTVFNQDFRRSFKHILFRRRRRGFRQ
Kind of assay: Inhibition of alpha-2C adrenergic receptor at 10 uM by NIMH PDSP.

Assay [5] addresses Beta-1 adrenergic receptor (Homo sapiens) (UniProt P08588). Kind of assay: Inhibition of beta-1 adrenergic receptor at 10 uM by NIMH PDSP.
Assay [6] concerns the target Beta-2 adrenergic receptor (Homo sapiens) (UniProt P07550). The assay is described as follows: Inhibition of beta-2 adrenergic receptor at 10 uM by NIMH PDSP.
Assay [7] has as its target D(1A) dopamine receptor (Homo sapiens, UniProt P21728). Kind of assay: Inhibition of D1 dopamine receptor at 10 uM by NIMH PDSP.
Assay [8] is described as follows: Inhibition of GABAA receptor at 10 uM by NIMH PDSP.
Assay [9] concerns the target Histamine H3 receptor (Homo sapiens) (UniProt Q9Y5N1). The assay is described as follows: Inhibition of H3 receptor at 10 uM by NIMH PDSP.
The target of assay [10] is Histamine H4 receptor (Homo sapiens) (UniProt Q9H3N8). The assay is described as follows: Inhibition of H4 receptor at 10 uM by NIMH PDSP.
For assay [11], the target named is 5-hydroxytryptamine receptor 1D (Homo sapiens) (UniProt P28221). Kind of assay: Inhibition of 5-HT1D receptor at 10 uM by NIMH PDSP.
Assay [12] deals with 5-hydroxytryptamine receptor 2B (Homo sapiens) (UniProt P41595). The assay is described as follows: Inhibition of 5-HT2B receptor at 10 uM by NIMH PDSP.
Assay [13] addresses T4, 5-hydroxytryptamine receptor 2C (Homo sapiens) (UniProt P28335).
T4 sequence (whole entry): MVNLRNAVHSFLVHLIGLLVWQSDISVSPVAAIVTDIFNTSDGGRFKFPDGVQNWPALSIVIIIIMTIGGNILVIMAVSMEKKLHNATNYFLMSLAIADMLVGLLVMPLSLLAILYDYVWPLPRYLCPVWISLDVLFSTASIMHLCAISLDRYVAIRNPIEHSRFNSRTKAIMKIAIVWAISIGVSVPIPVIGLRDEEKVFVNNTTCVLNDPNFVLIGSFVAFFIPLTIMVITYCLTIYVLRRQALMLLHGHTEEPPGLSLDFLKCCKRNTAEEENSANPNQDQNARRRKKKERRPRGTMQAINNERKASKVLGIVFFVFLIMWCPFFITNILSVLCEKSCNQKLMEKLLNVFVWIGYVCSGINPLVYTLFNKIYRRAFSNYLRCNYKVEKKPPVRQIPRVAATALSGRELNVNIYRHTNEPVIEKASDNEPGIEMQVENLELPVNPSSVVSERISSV
The assay is described as follows: Inhibition of 5-HT2C receptor at 10 uM by NIMH PDSP.

Assay [14] deals with 5-hydroxytryptamine receptor 6 (Homo sapiens) (UniProt P50406). The assay is described as follows: Inhibition of 5-HT6 receptor at 10 uM by NIMH PDSP.
5-hydroxytryptamine receptor 6 (Homo sapiens), sequence (P50406 whole entry): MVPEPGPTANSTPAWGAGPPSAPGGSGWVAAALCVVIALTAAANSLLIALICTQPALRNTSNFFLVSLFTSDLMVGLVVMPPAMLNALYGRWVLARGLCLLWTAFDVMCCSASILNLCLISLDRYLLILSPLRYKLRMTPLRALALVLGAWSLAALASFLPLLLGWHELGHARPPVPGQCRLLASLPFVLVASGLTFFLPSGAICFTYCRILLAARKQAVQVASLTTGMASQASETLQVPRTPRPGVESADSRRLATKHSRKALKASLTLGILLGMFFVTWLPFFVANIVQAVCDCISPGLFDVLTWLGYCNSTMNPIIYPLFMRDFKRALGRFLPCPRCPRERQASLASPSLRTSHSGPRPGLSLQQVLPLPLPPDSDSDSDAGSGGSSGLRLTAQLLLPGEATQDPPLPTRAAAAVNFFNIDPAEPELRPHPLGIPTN

5-hydroxytryptamine receptor 1D (Homo sapiens), sequence (P28221 whole entry): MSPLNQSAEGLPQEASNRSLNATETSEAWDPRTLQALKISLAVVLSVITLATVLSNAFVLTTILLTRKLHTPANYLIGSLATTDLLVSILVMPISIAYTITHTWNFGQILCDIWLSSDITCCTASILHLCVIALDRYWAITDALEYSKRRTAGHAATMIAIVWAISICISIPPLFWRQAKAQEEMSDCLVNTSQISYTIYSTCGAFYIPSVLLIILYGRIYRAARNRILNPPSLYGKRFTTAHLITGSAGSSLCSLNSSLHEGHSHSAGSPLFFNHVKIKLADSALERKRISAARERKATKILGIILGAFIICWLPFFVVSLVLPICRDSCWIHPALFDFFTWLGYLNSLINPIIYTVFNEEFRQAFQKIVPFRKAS
5-hydroxytryptamine receptor 2B (Homo sapiens), sequence (P41595 whole entry): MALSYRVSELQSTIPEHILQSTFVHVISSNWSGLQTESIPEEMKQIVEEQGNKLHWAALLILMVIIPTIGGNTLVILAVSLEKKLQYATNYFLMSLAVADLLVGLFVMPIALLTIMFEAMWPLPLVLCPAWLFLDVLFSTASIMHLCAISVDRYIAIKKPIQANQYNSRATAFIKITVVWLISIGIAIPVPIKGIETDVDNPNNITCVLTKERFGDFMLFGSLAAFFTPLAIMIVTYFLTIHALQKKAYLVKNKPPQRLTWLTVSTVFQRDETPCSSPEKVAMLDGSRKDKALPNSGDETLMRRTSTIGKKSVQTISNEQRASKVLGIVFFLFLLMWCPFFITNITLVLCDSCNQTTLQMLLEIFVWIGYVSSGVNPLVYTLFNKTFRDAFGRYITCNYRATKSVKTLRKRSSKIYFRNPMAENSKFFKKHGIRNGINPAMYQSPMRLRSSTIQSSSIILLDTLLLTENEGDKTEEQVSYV
Histamine H4 receptor (Homo sapiens), sequence (Q9H3N8 whole entry): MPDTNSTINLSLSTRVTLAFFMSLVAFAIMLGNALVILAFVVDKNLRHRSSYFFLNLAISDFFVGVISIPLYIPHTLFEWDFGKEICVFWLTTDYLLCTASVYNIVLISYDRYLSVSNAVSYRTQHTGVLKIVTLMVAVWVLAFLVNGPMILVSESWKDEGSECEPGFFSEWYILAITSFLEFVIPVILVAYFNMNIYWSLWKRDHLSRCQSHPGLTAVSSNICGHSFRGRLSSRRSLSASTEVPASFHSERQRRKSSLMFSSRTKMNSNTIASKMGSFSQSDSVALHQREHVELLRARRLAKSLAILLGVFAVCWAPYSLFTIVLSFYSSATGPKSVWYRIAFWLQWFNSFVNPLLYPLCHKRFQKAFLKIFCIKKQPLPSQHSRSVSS
Beta-1 adrenergic receptor (Homo sapiens), sequence (P08588 whole entry, looked up): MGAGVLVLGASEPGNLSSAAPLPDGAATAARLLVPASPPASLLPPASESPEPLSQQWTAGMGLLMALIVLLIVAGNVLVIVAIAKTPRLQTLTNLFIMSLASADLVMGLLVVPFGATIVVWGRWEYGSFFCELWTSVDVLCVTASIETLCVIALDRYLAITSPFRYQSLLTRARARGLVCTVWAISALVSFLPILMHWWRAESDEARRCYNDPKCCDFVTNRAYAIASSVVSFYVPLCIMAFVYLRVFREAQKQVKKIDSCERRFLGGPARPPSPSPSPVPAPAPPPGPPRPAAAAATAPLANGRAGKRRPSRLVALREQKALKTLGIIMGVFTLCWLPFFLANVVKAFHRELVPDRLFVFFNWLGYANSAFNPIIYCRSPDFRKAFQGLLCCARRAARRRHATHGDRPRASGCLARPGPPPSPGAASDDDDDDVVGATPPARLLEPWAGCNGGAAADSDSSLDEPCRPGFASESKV
Histamine H3 receptor (Homo sapiens), sequence (Q9Y5N1 whole entry): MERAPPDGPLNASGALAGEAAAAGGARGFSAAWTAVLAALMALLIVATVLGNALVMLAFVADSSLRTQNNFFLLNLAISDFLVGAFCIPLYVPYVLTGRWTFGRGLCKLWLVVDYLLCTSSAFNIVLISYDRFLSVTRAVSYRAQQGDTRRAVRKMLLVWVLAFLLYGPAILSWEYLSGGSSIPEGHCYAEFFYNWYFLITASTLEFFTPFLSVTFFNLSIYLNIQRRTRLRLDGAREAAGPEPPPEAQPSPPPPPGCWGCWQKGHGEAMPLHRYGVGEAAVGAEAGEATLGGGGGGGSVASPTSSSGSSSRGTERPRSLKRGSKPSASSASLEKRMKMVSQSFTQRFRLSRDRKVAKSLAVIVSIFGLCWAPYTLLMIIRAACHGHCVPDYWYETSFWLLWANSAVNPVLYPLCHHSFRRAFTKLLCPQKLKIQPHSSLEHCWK
Sigma non-opioid intracellular receptor 1, sequence (Q60492 whole entry): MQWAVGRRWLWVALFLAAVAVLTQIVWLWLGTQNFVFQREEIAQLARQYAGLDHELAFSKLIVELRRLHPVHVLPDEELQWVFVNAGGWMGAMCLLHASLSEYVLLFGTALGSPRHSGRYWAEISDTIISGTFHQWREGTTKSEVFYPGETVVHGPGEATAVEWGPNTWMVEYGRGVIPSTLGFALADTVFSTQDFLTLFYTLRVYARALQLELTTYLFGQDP
Beta-2 adrenergic receptor (Homo sapiens), sequence (P07550 whole entry, looked up): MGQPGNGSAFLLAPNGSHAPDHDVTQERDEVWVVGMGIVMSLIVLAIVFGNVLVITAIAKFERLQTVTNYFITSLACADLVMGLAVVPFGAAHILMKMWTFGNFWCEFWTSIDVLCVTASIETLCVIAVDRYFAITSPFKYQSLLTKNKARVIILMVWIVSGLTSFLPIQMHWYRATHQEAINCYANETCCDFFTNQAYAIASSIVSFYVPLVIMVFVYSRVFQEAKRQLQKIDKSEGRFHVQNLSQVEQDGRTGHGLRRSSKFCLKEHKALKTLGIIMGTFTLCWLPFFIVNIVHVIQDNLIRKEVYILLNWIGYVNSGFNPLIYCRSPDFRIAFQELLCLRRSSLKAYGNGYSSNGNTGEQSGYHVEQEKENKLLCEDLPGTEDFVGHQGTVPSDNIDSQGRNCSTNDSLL
D(1A) dopamine receptor, sequence (P21728 whole entry): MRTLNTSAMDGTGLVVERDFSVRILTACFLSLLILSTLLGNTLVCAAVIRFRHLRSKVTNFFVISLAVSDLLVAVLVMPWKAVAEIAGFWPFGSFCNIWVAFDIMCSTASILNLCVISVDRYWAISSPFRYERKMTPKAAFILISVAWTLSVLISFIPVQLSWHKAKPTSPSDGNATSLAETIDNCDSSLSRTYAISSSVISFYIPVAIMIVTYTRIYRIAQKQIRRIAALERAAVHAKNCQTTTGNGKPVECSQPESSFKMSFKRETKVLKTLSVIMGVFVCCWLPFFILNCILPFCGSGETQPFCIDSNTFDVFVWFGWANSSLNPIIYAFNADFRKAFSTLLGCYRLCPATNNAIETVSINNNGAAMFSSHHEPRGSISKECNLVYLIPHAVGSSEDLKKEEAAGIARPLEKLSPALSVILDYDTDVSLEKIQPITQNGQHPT

For `c1ccc(CN2C3CC4CC(C3)CC2C4)cc1`, in [1], affinity was put at a Ki of 0.029 µM. Besides, the inhibition in assay [2], in assay [3], in [4], in assay [5], in assay [6] and in assay [7] was below 50% in each case. The inhibition in assay [8], in assay [9], in assay [10], in assay [11], in [12] and in assay [13] was below 50% each time. In addition, in assay [14], the inhibition was below 50%.
Molecule `OC12CC3CC(CC(C3)N1Cc1cccc(F)c1)C2` (racemic) registered a Ki in [1] of 0.862 µM. In addition, the inhibition in [2], in assay [3], in assay [4], in assay [5], in assay [6] and in assay [7] was below 50% each time. The inhibition in assay [8], in [9], in assay [10], in [11], in assay [12] and in [13] was below 50% throughout. Moreover, the inhibition in assay [14] is below 50%.
For `OC12CC3CC(CC(C3)N1Cc1ccccc1)C2` (racemic), the affinity in [1] corresponds to a Ki of 1.45 µM. The inhibition in assay [4], in [5], in [6], in [7], in assay [8] and in assay [9] was below 50% each time. Further, the inhibition in [10], in assay [11], in assay [12], in assay [13] and in assay [14] was below 50% each time.
On to `Fc1cccc(CN2C3CC4CC(C3)CC2C4)c1`, for which the affinity in [1], expressed as Ki, was 0.022 µM. For the same molecule, the inhibition in assay [2], in assay [3], in assay [4], in assay [5], in [6] and in assay [8] was below 50% in each case. The inhibition in [9], in [10], in [11], in assay [12], in [13] and in assay [14] was below 50% in each case.

Broadly, the Ki is a dissociation constant, usually derived from enzyme kinetics or from competition with a known ligand. Usually inhibition stands for the change of the read-out against control, counted positive when it falls.
